Where two headings read alike, the source gives them in different places.
Legend:
rat A1 receptors = target: T1, rat A1 receptors (Rattus norvegicus, UniProt P25099); assay: Displacement of [3H]R-PIA binding to A1 receptors in rat brain membranes; conditions: read-out: Ki rA1
T1 construct: to A1 receptors from rat cerebral cortical membranes; from tissue; host or cells: rat cerebral cortical membranes
T1 sequence (P25099 1-326): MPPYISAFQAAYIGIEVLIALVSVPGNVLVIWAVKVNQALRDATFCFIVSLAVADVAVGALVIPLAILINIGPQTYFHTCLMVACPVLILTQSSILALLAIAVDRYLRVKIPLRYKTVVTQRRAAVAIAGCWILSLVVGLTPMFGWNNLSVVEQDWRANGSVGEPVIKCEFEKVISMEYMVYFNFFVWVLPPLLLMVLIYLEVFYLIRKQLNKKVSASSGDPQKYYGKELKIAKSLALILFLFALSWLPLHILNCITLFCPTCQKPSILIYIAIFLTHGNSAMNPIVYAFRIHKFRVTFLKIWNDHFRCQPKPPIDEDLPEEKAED
Procedure: All nonradioactive compounds were initially dissolved in DMSO and diluted with buffer to the final concentration, where the amount of DMSO never exceeded 2%. Incubations were terminated by rapid filtration over Whatman GF/B filters using a Brandell cell harvester. The tubes were rinsed three times with 3 mL buffer each.
At least six different concentrations of competitor, spanning 3 orders of magnitude adjusted appropriately for the IC50 value of each compound, were used. IC50 values, calculated with the nonlinear regression method implemented in Graph-Pad Prism (San Diego, CA) were converted to apparent Ki values as described by [Linden [1982]]. Hill coefficients of the tested compounds were in the range of 0.8–1.1.
At A2B receptors, two radioligand binding assays (Table 1) were used. Ki values of xanthine derivatives were determined in displacement of binding of the non-selective radioligands […], 8 (4-(2-[7-amino-2-{furyl}{1,2,4}triazolo{2,3-a}{1,3,5}tr nzyl)-8-phenyloxyacetate-1-propyl-xanthine), at human A2B receptors expressed in HEK-293 cell membranes [[Linden and Jacobson, 1998]]. In order to evaluate selectivity, selected derivatives were subjected to standard binding assays at A1, A2A, and A3 receptors. The initial screening utilized rat brain A1/A2A receptors (with radioligands [^3H]R-PIA and [^3H]CGS-21680), and selected compounds were examined at the recombinant human subtypes (Table 1), using [^3H]CPX ([^3H]8-cyclopentyl-1,3-dipropylxanthine) and ^125I-ZM 241385, ^125I-4-(2-[7-amino-2-[2-furyl][1,2,4]triazolo[2,3-a][1,3,5]triazin-5-yl-amino]ethyl)phenol) [[Palmer et al., 1996]].

human A2B receptors = target: T2, human A2B receptors (Homo sapiens, UniProt P29275); assay: Binding at human A2B receptors expressed in HEK-293 cells vs [3H]ZM241385; conditions: for rA1/hA2B: ratio of Ki rat A1 to Ki human A2B
T2 construct: expressed in transfected cells; host or cells: HEK-293
T2 sequence (P29275 1-332): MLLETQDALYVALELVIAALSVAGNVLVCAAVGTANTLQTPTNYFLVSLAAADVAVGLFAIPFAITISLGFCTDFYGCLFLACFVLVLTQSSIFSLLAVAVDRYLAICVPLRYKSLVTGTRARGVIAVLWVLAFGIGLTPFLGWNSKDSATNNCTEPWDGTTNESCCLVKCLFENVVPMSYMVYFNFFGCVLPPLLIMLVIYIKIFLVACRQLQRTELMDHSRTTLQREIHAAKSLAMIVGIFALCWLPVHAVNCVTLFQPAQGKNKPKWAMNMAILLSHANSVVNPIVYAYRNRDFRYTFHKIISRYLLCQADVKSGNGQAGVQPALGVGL
Procedure: The plasmid was amplified in competent JM109 cells and plasmid DNA isolated using Wizard Megaprep columns (Promega Corp., Madison, WI).
Colonies were selected by growth of cells in 0.6 mg/mL G418. Transfected cells were maintained in DMEM supplemented with Hams F12 nutrient mixture (1/1), 10% newborn calf serum, 2 mM glutamine, and containing 50 IU/mL penicillin, 50 μg/mL streptomycin, and 0.2 mg/mL Geneticin (G418, Boehringer Mannheim, Indianapolis, IN).
Confluent monolayers of HEK-A2B cells were washed with PBS followed by ice-cold Buffer A (10 mM HEPES, 10 mM EDTA, pH 7.4) with protease inhibitors ([…] benzamidine, […], and […] of each aprotinin, pepstatin, and leupeptin). The cells were homogenized in a Polytron (Brinkmann) for 20 sec, centrifuged at 30,000g, and the pellets washed twice with buffer HE (10 mM HEPES, 1 mM EDTA, pH 7.4 with protease inhibitors). The final pellet was resuspended in buffer HE, supplemented with 10% sucrose and frozen in aliquots at −80°C. For binding assays, membranes were thawed and diluted 5–10-fold with HE to a final protein concentration of approximately 1 mg/mL. […] After incubating for 20 min at room temperature, 50 mL of 10 mg/mL Na-metabisulfite in water was added the quench the reaction. The reaction products were applied to a C18 HPLC column using 4 mM phosphate, pH 6.0/methanol. […] The incubation time was 3 h at 21°C. […] Membranes were filtered on Whatman GF/C filters using a Brandell cell harvester (Gaithersburg, MD) and washed three times over 15–20 sec with ice-cold buffer (10 mM Tris, 1 mM MgCl2, pH 7.4). […] Data from replicate experiments are tabulated as means ± SEM.
At A2B receptors, two radioligand binding assays (Table 1) were used. […] In order to evaluate selectivity, selected derivatives were subjected to standard binding assays at A1, A2A, and A3 receptors.

[1] = HEK-293 cells, vs [3H]ZM241385, read-out: Ki hA2B

Row | Ki (rat A1 receptors) [nM] | Ki (human A2B receptors; [1]) [nM] | rA1/hA2B (human A2B receptors) | selectivity for human A2B vs. human A1 receptors (human A2B receptors; human A2B vs human A1) [fold] | selectivity for human A2B vs. human A2A receptors (human A2B receptors; human A2B vs human A2A) [fold] | selectivity for human A2B vs. human A3 receptors (human A2B receptors; human A2B vs human A3) [fold] | Ki (human A2B receptors; rounded values given in text, read-out: Ki at human A2B receptors) [nM] | Structure (SMILES)
1 | 73.3 ± 22 | 116 ± 10 | – | – | – | – | – | CCCn1c(=O)c2[nH]c(-c3ccc(OCC(=O)NNC(=O)CCC(=O)O)cc3)nc2n(CCC)c1=O [Compound 9, 8-[4-[(Carboxymethyl)oxy]phenyl]-1,3-di-(n-propyl)xanthine N-[(3-Carboxy)-n-propionyl]hydrazide]
2 | 26.3 ± 2.3 | 64.4 ± 0.8 | 0.41 | – | – | – | – | CCCn1c(=O)c2[nH]c(-c3ccc(OCC(=O)NN4C(=O)c5ccccc5C4=O)cc3)nc2n(CCC)c1=O [Compound 21, 8-[4-[(Carboxymethyl)oxy]phenyl]-1,3-di-(n-propyl)xanthine N,N-Phthaloylhydrazide]
3 | – | 18.7 ± 0.5 | 2.8 | – | – | – | – | CCCn1c(=O)c2[nH]c(-c3ccc(OCC(=O)OCC)cc3)nc2n(CCC)c1=O [Compound 4b]
4 | 3590 | 1800 | 2.0 | – | – | – | – | CCCn1c(=O)[nH]c(=O)c2[nH]c(-c3ccc(OCC(=O)NN4C(=O)C(C)=C(C)C4=O)cc3)nc21 [Compound 15, 8-[4-[(Carboxymethyl)oxy]phenyl]-1H-3-(n-propyl)xanthine N,N-[(1,2-Dimethyl)maleyl]hydrazide]
5 | 6.51 ± 1.24 | 65.4 ± 6.5 | 0.10 | – | – | – | – | CCCn1c(=O)c2[nH]c(-c3ccc(OCC(=O)NNC(C)=O)cc3)nc2n(CCC)c1=O [Compound 4e, 8-[4-[(Carboxymethyl)oxy]phenyl]-1,3-di-(n-propyl)xanthine N-Acetylhydrazide]
6 | 11.1 ± 2.4 | 19.4 ± 6.2 | 0.57 | 160 | 100 | 35 | 19 | CCCn1c(=O)c2[nH]c(-c3ccc(OCC(=O)NN4C(=O)C(C)=C(C)C4=O)cc3)nc2n(CCC)c1=O [Compound 14, 8-[4-[(Carboxymethyl)oxy]phenyl]-1,3-di-(n-propyl)xanthine N,N-[(1,2-Dimethyl)maleyl]hydrazide]

Reference: publication PMC9196953 (Drug development research, 1999)
